The target of one experiment is T1, tubulin (Sus scrofa, UniProt P02550+P02554).
T1 construct: polymerisation of tubulin, isolated from porcine brain tissue; purchased Cytoskeleton, Inc; host or cells: porcine brain tissue
Briefly: Tubulin polymerisation assay. Particulars: fluorescence, tubulin from porcine brain; mean ± SD of three experiments. The format is biochemical. The procedure: The assay was performed using the tubulin polymerisation assay kit (Cytoskeleton, Inc, USA) as per the manufacturer’s instructions and as previously reported. […] Polymerisation dose-response curves were obtained by measuring changes in fluorescence intensity at each compound concentration. Fluorescence was measured at an excitation of 360 nm and emission of 450 nm using a Tecan-spark reader.
A tubulin polymerisation assay was used in order to assess the potential of CFSB as a tubulin polymerisation inhibitor. The assay involved observing the polymerisation of tubulin, isolated from porcine brain tissue, in the presence of CFSB. Changes in polymerisation were monitored via changes in fluorescence intensity.

A further experiment has as its target T2, CDK2 (Homo sapiens, UniProt P24941).
T2 construct: purchased BPS Bioscience
Briefly: CDK2 kinase assay. It counts as biochemical. Particulars: mean ± SD of three experiments. The procedure: (§1) CDK2 kinase assay was performed using the CDK2 kinase assay kit (BPS Bioscience, USA) as previously described. The EGFR kinase assay was performed in 96-well plates coated with PGT (poly l-glutamic acid l-tyrosine, Sigma Aldrich, USA) using the EGFR kinase assay kit (BPS Bioscience, USA) and was conducted as previously described. The VEGFR-2 kinase assay was carried out in 96-well streptavidin coated plate using recombinant human VEGFR-2/KDR ELISA kit as previously described. The tropomyosin receptor kinases (TRK) inhibition assay was performed using TrkA assay kit (BPS Bioscience, USA) as per the manufacturer’s instructions. Topoisomerase II assay was performed using the human topoisomerase II relaxation assay kit (Inspiralis, UK) which involved relaxing supercoiled pBR322 DNA substrate by the enzyme. The relaxation assay was conducted as per the manufacturer’s instructions and as previously reported.

The target in another experiment is T3, TrkA (Homo sapiens, UniProt P04629).
T3 construct: purchased BPS Bioscience
T3 sequence (P04629 33-796): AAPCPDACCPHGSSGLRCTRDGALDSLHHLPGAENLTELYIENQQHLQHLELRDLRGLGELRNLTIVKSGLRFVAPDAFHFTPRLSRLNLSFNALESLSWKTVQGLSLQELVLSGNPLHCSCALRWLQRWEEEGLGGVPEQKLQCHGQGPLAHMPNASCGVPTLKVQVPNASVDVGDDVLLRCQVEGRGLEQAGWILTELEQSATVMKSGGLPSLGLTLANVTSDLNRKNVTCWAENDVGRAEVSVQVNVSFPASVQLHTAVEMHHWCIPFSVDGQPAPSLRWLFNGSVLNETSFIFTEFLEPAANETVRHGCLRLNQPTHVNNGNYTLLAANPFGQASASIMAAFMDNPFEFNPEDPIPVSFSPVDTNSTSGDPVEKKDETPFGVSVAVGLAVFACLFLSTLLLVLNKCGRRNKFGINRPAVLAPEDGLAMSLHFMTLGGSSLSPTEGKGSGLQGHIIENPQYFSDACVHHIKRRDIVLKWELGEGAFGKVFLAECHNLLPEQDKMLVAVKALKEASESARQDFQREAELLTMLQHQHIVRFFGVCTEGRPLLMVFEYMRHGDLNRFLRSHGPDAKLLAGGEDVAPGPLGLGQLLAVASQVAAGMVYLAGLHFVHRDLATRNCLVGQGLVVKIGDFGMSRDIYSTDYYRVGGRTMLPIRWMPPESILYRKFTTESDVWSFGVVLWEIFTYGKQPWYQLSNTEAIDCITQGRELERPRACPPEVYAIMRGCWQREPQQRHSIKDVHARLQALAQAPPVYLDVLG
Briefly: TrkA inhibition assay. The format is biochemical. The conditions noted are these: mean ± SD of three experiments. As for the experimental part: as §1

A further experiment has as its target T4, VEGFR (Homo sapiens, UniProt P35968).
T4 construct: purchased
In words: VEGFR-2 kinase assay. It counts as biochemical. The conditions noted are these: mean ± SD of three experiments. The procedure:
as §1

A further experiment concerns the target T5, EGFR (Homo sapiens, UniProt P00533).
T5 construct: purchased BPS Bioscience
Briefly: EGFR kinase assay. The conditions noted are these: mean ± SD of three experiments. It counts as biochemical. As for the experimental part: as §1

For another experiment, the target named is human topoisomerase II. In words: Human topoisomerase II relaxation assay (pBR322). It counts as biochemical. The conditions noted are these: relaxation of supercoiled pBR322 DNA; mean ± SD of three experiments. As for the experimental part: as §1
The potential inhibition of topoisomerase II by CFSB was evaluated using human topoisomerase II assay. This assay involves measuring the ability of topoisomerase II enzyme to relax supercoiled DNA (pBR322)[68].

The test system of another experiment is MDA-MB-231. Particulars: triple negative breast cancer cell line; values as low as; cited from earlier work.
Another experiment deals with HCT116 cells. Briefly: MTT cell viability assay, HCT116. The conditions noted are these: Homo sapiens, HCT-116, 72 h, mean ± SD of three experiments. It counts as cell-based. The procedure: (§2) Liver cancer (HepG2), colon cancer (HCT116), lung cancer (A549), breast cancer (MCF7) and normal lung (MRC5) cells were obtained from ATCC (Rockville, USA). Cells were cultured in RPMI-1640 enriched with 10% foetal calf serum and 50 µg/ml gentamycin. They were incubated at 37 °C in a humidified environment containing 5% CO2 and passaged 2–3 times/week.
(§3) The MTT assay was conducted as previously reported. Cell lines were seeded at 5x10^4 cells/well and incubated for 24 h. CFSB was added in twelve concentrations, alongside vehicle controls and vinblastine sulphate as a positive control. After 72 h of incubation, cell viability was assessed using the MTT assay. Media was replaced, followed by the addition of MTT solution. DMSO was later added and optical density was measured at 590 nm using a microplate reader (TECAN, USA). IC50 values were calculated using Graphpad Prism (San Diego, USA). The experiment was repeated three times.

For another experiment, the system named is HepG2 cells. Briefly: MTT cell viability assay, HepG2. The format is cell-based. The conditions noted are these: Homo sapiens, 72 h, mean ± SD of three experiments. The procedure:
as §2, §3
For orientation: Tetrazolium dyes change colour on reduction, which living cells bring about.

The test system of another experiment is MCF7 cells. Briefly: MTT cell viability assay, MCF7. The format is cell-based. The conditions noted are these: Homo sapiens, 72 h, mean ± SD of three experiments. The procedure:
as §2, §3

The test system of a further experiment is A549 cells. Briefly: MTT cell viability assay, A549. It counts as cell-based. The conditions noted are these: Homo sapiens, 72 h, mean ± SD of three experiments.

Where “and” joins values, the source holds several entries; their conditions need not be identical. Equal entries are not always repeated. Bounds are passed on as bounds.

T1 sequence (P02554 whole entry): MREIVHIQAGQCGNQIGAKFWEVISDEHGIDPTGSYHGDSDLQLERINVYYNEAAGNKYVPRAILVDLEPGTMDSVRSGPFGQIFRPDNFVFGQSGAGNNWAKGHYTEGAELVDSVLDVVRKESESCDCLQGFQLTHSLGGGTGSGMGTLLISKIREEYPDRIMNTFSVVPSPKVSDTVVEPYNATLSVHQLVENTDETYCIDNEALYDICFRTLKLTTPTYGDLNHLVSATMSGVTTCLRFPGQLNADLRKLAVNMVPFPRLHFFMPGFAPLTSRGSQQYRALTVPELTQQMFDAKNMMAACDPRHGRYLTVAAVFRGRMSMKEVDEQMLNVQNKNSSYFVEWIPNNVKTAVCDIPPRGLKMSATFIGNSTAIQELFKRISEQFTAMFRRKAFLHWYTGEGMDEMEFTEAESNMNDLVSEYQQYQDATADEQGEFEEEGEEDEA
T1 sequence (P02550 whole entry): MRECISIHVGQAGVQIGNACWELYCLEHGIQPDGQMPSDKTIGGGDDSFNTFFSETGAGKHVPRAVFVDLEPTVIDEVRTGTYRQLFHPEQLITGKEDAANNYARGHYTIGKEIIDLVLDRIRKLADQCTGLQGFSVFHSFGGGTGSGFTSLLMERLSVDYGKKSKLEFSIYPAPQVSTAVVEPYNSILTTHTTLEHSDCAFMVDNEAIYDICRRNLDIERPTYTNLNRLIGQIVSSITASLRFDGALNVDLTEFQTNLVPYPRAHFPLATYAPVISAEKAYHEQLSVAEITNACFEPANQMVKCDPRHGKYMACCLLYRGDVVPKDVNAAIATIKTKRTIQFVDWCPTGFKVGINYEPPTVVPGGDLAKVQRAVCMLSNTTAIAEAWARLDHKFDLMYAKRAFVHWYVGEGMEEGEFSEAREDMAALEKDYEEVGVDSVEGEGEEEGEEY
T4 sequence (P35968 20-1356): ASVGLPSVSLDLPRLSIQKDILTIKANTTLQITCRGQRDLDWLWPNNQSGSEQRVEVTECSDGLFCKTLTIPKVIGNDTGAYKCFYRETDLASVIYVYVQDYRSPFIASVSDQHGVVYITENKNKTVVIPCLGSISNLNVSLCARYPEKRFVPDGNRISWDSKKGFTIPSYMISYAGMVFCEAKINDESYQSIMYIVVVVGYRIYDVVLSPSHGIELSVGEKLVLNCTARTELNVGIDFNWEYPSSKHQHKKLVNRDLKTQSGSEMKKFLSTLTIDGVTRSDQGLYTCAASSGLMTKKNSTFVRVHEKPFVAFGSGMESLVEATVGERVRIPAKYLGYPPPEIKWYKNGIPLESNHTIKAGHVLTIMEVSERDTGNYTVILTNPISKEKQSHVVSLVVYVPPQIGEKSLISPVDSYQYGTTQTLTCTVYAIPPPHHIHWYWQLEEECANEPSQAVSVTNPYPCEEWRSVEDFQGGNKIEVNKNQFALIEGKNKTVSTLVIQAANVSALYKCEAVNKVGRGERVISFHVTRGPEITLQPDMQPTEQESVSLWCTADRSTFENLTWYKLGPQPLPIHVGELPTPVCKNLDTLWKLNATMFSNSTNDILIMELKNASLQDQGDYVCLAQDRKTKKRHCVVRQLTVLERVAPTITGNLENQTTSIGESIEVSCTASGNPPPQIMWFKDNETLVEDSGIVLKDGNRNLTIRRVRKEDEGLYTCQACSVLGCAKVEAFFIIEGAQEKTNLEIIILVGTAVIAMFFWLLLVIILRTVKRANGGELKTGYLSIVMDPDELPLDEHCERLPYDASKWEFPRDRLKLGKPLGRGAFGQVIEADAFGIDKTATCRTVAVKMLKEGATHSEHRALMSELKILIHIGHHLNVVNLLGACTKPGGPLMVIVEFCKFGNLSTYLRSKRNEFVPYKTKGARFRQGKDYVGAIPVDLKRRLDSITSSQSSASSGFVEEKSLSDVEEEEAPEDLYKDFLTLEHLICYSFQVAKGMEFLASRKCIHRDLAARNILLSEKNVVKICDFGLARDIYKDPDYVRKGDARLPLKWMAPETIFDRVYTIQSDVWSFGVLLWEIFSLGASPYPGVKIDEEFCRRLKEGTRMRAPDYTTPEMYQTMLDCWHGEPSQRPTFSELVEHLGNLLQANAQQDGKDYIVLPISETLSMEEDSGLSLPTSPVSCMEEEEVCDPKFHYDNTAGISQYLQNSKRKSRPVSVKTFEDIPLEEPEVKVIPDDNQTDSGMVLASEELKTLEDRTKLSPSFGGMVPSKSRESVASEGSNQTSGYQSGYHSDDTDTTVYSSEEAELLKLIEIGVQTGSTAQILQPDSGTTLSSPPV
T5 sequence (P00533 25-1210): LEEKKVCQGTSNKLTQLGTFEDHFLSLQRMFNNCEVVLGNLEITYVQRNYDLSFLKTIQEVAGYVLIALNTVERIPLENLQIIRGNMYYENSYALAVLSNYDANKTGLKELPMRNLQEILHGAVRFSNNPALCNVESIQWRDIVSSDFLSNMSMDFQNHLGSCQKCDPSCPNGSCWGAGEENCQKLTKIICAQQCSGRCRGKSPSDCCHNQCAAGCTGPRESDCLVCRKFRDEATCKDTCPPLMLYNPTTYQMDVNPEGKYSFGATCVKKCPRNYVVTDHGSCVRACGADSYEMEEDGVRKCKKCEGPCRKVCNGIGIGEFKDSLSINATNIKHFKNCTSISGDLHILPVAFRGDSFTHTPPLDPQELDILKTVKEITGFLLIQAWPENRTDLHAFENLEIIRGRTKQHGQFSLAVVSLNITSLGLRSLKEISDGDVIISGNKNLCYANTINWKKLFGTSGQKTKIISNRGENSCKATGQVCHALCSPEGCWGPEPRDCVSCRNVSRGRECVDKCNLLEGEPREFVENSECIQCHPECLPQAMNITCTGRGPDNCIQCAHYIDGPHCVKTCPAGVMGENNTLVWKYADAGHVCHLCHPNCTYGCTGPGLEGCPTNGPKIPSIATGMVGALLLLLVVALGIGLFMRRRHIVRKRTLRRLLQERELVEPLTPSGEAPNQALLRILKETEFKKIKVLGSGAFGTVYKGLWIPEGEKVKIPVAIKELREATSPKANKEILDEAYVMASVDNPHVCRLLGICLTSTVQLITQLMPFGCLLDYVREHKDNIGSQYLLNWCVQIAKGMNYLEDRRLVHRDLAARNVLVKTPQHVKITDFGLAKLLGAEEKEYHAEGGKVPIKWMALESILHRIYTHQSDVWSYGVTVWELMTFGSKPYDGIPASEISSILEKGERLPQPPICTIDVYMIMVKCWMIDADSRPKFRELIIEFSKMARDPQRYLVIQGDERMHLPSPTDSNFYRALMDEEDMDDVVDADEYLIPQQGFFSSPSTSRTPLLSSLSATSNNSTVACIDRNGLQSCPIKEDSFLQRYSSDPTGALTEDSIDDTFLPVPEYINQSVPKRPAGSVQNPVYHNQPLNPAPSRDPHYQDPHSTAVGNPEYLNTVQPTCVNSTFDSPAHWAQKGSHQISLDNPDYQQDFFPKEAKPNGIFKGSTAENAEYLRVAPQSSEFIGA
Experimental for A549 cells: The MTT assay was conducted as previously reported[20]. Cell lines were seeded at 5x10^4 cells/well and incubated for 24 h. […] After 72 h of incubation, cell viability was assessed using the MTT assay. Media was replaced, followed by the addition of MTT solution. DMSO was later added and optical density was measured at 590 nm using a microplate reader (TECAN, USA). IC50 values were calculated using Graphpad Prism (San Diego, USA). The experiment was repeated three times.

By IC50 is commonly meant the concentration that inhibits the measured activity by half. Consider `Oc1cc(O)c2c(=N[C]34[CH]5[CH]6[CH]7[CH]3[Fe]6754389%10[CH]4[CH]3[CH]8[CH]9[CH]4%10)cc(-c3ccccc3)oc2c1` (stereo not drawn) [CFSB, cyclopenta-2,4-dien-1-yl(5-((5,7-dihydroxy-2-phenyl-4H-chromen-4-ylidene)amino)cyclopenta-2,4-dien-1-yl)iron], for which the IC50 on tubulin is 76 µM and 76.4 µM; on CDK2, more than 100 µM; against TrkA, more than 100 µM; on VEGFR, more than 100 µM; at EGFR, more than 100 µM; against human topoisomerase II it was 20 µM and 20.1 µM.
With `O=C(COc1cc(O)c2c(=O)cc(-c3ccccc3)oc2c1)N/N=C/c1ccc(O)cc1O` [Chrysin-De-allyl-Pac-1], the IC50 in the experiment on MDA-MB-231 was not below 5.98 µM.
In the experiment on HCT116 cells, `COc1cccc2c1C(=O)c1c(O)c3c(c(O)c1C2=O)C[C@@](O)(C(=O)CO)C[C@@H]3O[C@H]1C[C@H](N)[C@H](O)[C@H](C)O1` [Doxorubicin] registered a concentration for half-maximal inhibition (IC50) of 3160 ± 380 nM.
Turning to `CC[C@]1(O)C[C@@H]2CN(CCc3c([nH]c4ccccc34)[C@@](C(=O)OC)(c3cc4c(cc3OC)N(C)[C@H]3[C@@](O)(C(=O)OC)[C@H](OC(C)=O)[C@]5(CC)C=CCN6CC[C@]43[C@@H]65)C2)C1` [Vinblastine sulphate], the IC50 was determined as 1750 ± 190 nM in the experiment on HCT116 cells, 890 ± 100 nM with HepG2 cells, 2270 ± 250 nM with MCF7 cells and 4.15 ± 0.31 µM in the experiment with A549 cells.

These data come from article PMC12096666, “Synthesis, in vitro and in silico studies of a novel chrysin-ferrocene Schiff base with potent anticancer activity via G1 arrest, caspase-dependent apoptosis and inhibition of topoisomerase II” (Journal of Enzyme Inhibition and Medicinal Chemistry, 2025).
